Source: patent US20160361250A1, “ACTIVE INGREDIENTS STIMULATING TYPE 2 AND/OR TYPE 3 HUMAN BETA-DEFENSINS AND COSMETIC OR PHARMACEUTICAL COMPOSITIONS CONTAINING SUCH ACTIVE INGREDIENTS” (BASF Beauty Care Solutions France S.A.S., priority 2002, published 2016)
Where “and” joins values, the source holds several entries; their conditions need not be identical. Equal entries are not always repeated.

Legend:
MIP3α = experiment: ELISA of MIP3α in supernatants, 2nd step; type: cell-based, human; conditions: supernatant, 16 h
Procedure: (§1) The supernatants of the actives, whose capacity to induce defensins has been confirmed, are tested using an ELISA kit in order to assay MIP3α, IL8 and IL1α levels. These assays are performed on the same supernatant (200 μL) by carrying out a series dilution (by 1.5 to assay MIP3α and IL8, then by 2 to assay IL1). The levels are then referred to the RNA concentration assayed in each well in order to compare results with each other.
(§2) Quantitative RT-PCR makes it possible to obtain a basal value for the defensin expression for untreated controls. The results are therefore expressed as a percentage of the control. IL8, IL1 and MIP3 cytokine levels are given as pg/mL/RNA concentration (in ng/μL).

hBD2 [1] = experiment: Qualitative RT-PCR of hBD2 expression, 1st step of the screening method; type: cell-based; conditions: normal human keratinocytes, 16 h
Procedure: (§3) A 1% concentration of the actives is tested on normal human keratinocytes, as a monolayer, on 96-well culture plates, in a specific medium enriched with calcium and free of serum (final concentration 1.7 mM).
(§4) At 80% confluence, cells are contacted with the actives (1 active per well) for 16 h. An untreated control and 2 positive controls (TNFα 100 ng/mL for hBD2 and IFNγ 100 ng/mL for hBD3) are set up in parallel on the same culture plate.
(§5) After 16 h, the supernatants are collected and cells are dry frozen at −80° C. after rinsing in PBS.
(§6) Total RNA are extracted using a 96-well extraction kit on silica columns and assayed using a 96-well spectrophotometer at 260 and 280 nm. RNA are diluted to 5 ng/mL.
(§7) Qualitative one-step RT-PCR is performed on 50 ng of initial RNA in 96 wells, on actin, hBD2 and hBD3. The primers are used at a concentration of 0.5 μM and arc taken from the literature:—hBD2: sense: 5′-[…]-3′; hBD2 antisense 5′-[…]-3′ (Harder J. et al., A peptide antibiotic from human skin. Nature 1997; 387 : 861); hBD3 sense: 5′-[…]-3′; hBD3 antisense: 5′-[…]-3′; actin sense: 5′-[…]-3′; actin antisense: 5′-[…]-3′ (Harder J. et al., Isolation and characterization of human β-defensin-3, a novel human inducible peptide antibiotic. J Biol Chem 2001, 276 : 5707-5713).
(§8) Samples are placed in a thermocycler and follow a common amplification program: 50° C., 30 min; 94° C., 2 min, (94° C., 30 s; 60° C., 30 s; 68° C., 30 s), 32 cycles for the defensins and 30 cycles for actin; 72° C., 10 min; 14° C., infinite.
(§9) After amplification, the products are mixed at a rate of 3 μL of actin amplification products+6 μL of hBD2 amplification products+6 μL of hBD3 amplification products. 5 μL of a mixture of charge buffer and water (⅔) are added and the final 20 μL are deposited on 2% premoulded agarose gel. The samples migrate in 30 minutes and the bands are visualised under UV in a dark room then digitally photographed.
(§10) Photos of the gels are analysed by image processing software which quantifies the intensity of the bands. As the basal level of defensin expression (untreated control) is not detectable, the intensity ratios of the hBD2/actin and hBD3/actin bands can be compared, for example with those obtained for the positive control (treated with TNFα for hBD2 and IFNγ for hBD3) and indicate any stimulation of the expression of the β-defensin in question
(§11) Since the basal level of defensin expression is generally not detectable, stimulation of hBD2 and hBD3 is expressed as a percentage of the positive controls (TNFα for hBD2 and IFNγ for hBD3). IL8 and MIP3α levels are given as pg/mL/RNA concentration (in ng/μL).

IL8 [2] = experiment: ELISA of IL8 in supernatants, 2nd step; type: cell-based, human; conditions: supernatant, 16 h
Procedure: as §1, §2

hBD3 [3] = experiment: Qualitative RT-PCR of hBD3 expression, 1st step of the screening method; type: cell-based; conditions: normal human keratinocytes, 16 h
Procedure: as §4, §5, §6, §7, §8, §9, §10, §11

hBD2 and/or hBD3 [4] = experiment: 1st step of the screening method, overall outcome (defensin RT-PCR plus MIP3α/IL8 ELISA); type: cell-based, human; conditions: first step
Procedure: as §3, §4, §5, §6
as §7, with “5707-5713). […]” for “5707-5713).”
Photos of the gels are analysed by image processing software which quantifies the intensity of the bands. […]

IL1α = experiment: ELISA of IL1α in supernatants, 2nd step; type: cell-based, human; conditions: supernatant, 16 h
Procedure: as §1, §2

hBD2 and/or hBD3 [5] = experiment: 2nd step of the screening method, overall outcome (quantitative RT-PCR plus MIP3α/IL8/IL1α ELISA); type: cell-based, human; conditions: 3.125, 6.25, 12.5 and 25 μg/mL
Procedure: The actives which best satisfied the criteria for the first step undergo a dose-effect analysis.
(§12) The actives are then tested on 5 concentrations (from 0.001% to max viability) in quadruplicate on normal human keratinocytes as a monolayer on 96-well culture plates, in a specific medium enriched with calcium and free of serum (CaCl2 1.7 mM) (same conditions as in example 1).
as §5
(§13) Total RNA are extracted using a 96-well extraction kit on silica columns and assayed using a 96-well spectrophotometer at 260 and 280 nm. RNA are diluted to 5 ng/μL.
(§14) Quantitative RT-PCR in 96 wells on actin, hBD2 and hBD3 is initially carried out on 50 ng of RNA, using a one-step kit containing Sybrgreen, in a fluorescence thermocycler with the same primers as previously (0.5 μM). The amplification program is as follows: 50° C., 30 min; 94° C., 15 min; (94° C., 15 s; 60° C., 30 s; 72° C., 30 s)×50 cycles; 90° C., 1 min; 30° C., 1 min; 50° C. to 95° C. (10 s every ° C.); 14° C., infinite.
(§15) A study of the fusion graphs makes it possible to verify the specificity of amplified products. The fluorescence graph as a function of the number of cycles gives the C(T) value corresponding to the number of cycles needed to obtain initiation of the fluorescence signal. The more an mRNA is expressed, the lower the C(T) value. Calculation of Sgene=(½)^C(T) for each RNA takes into consideration the exponential increase in the number of copies during amplification. The Sgene hBD2/Sgene actin and Sgene hBD3/Sgene actin ratios can be compared with those of the untreated control to give the percentage stimulation produced.
as §1, with “The levels are then referred to the RNA concentration assayed in each well in order to compare results with each other.” left out

hBD2 [6] = experiment: Quantitative RT-PCR of hBD2 expression, 2nd step (dose-effect); type: cell-based, human; conditions: 16 h, untreated control = 100%
Procedure: as §12, §5, §13, §14, §15, §2
(§16) In the same way as in example 2, retinoic acid and retinol were tested for their capacity to stimulate hBD2 and/or hBD3.

hBD3 [7] = experiment: Quantitative RT-PCR of hBD3 expression, 2nd step (dose-effect); type: cell-based, human; conditions: 16 h, untreated control = 100%
Procedure: as §12, §5, §13, §14, §15, §2, §16

animals = conditions: in vivo
human volunteers = conditions: in vivo
IL8 [8] = experiment: ELISA of IL8 secreted into the culture medium, 1st step; type: cell-based, human; conditions: 100 ng/mL (positive control); keratinocyte supernatant, 16 h
Procedure: At the end of this first step, the actives having exerted an effect on β-defensin expression are selected and the supernatants corresponding to these actives are then tested using an ELISA kit in order to determine the levels of MIP3α, IL1 and IL8 secreted into the culture medium under the effect of the actives. The levels are then referred to the RNA concentration assayed in each well in order to compare results with each other.
as §11

## CC[C@H](C)[C@H](N)C(=O)O [L-Isoleucine]
MIP3α; conc. 3.125 μg/mL
  MIP3α level: 5.2 pg/mL/RNA concentration (in ng/μL)
MIP3α; conc. 6.25 μg/mL
  MIP3α level: 4.9 pg/mL/RNA concentration (in ng/μL)
MIP3α; conc. 12.5 μg/mL
  MIP3α level: 5.9 pg/mL/RNA concentration (in ng/μL)
MIP3α; conc. 25 μg/mL
  MIP3α level: 4.5 pg/mL/RNA concentration (in ng/μL)
hBD2 [1]; 10 μg/mL
  HBD2 expression, percentage of the positive control (TNFα): 0%
IL8 [2]; conc. 3.125 μg/mL
  IL8 level: 36.9 pg/mL/RNA concentration (in ng/μL)
IL8 [2]; conc. 6.25 μg/mL
  IL8 level: 33.6 pg/mL/RNA concentration (in ng/μL)
IL8 [2]; conc. 12.5 μg/mL
  IL8 level: 42.2 pg/mL/RNA concentration (in ng/μL)
IL8 [2]; conc. 25 μg/mL
  IL8 level: 35.1 pg/mL/RNA concentration (in ng/μL)
hBD3 [3]; 10 μg/mL
  HBD3 expression, percentage of the positive control (IFNγ): 0%
hBD2 and/or hBD3 [4]
  stimulation of human defensins 2 and 3 by qualitative RT-PCR (in words): no significant stimulation of human defensins 2 and 3
IL1α; conc. 3.125 μg/mL
  IL1α level: 21 pg/mL/RNA concentration (in ng/μL)
IL1α; conc. 6.25 μg/mL
  IL1α level: 22.3 pg/mL/RNA concentration (in ng/μL)
IL1α; conc. 12.5 μg/mL
  IL1α level: 25.3 pg/mL/RNA concentration (in ng/μL)
IL1α; conc. 25 μg/mL
  IL1α level: 22.8 pg/mL/RNA concentration (in ng/μL)
hBD2 and/or hBD3 [5]
  induction of hBD2 and hBD3 expression in normal human keratinocytes (in words): has not been found capable of inducing hBD2 and hBD3 expression
hBD2 [6]; conc. 3.125 μg/mL
  hBD2 expression, percentage of the control: 110%
hBD2 [6]; conc. 6.25 μg/mL
  hBD2 expression, percentage of the control: 107%
hBD2 [6]; conc. 12.5 μg/mL
  hBD2 expression, percentage of the control: 95%
hBD2 [6]; conc. 25 μg/mL
  hBD2 expression, percentage of the control: 110%
hBD3 [7]; conc. 3.125 μg/mL
  hBD3 expression, percentage of the control: 89%
hBD3 [7]; conc. 6.25 μg/mL
  hBD3 expression, percentage of the control: 94%
hBD3 [7]; conc. 12.5 μg/mL
  hBD3 expression, percentage of the control: 101%
hBD3 [7]; conc. 25 μg/mL
  hBD3 expression, percentage of the control: 106%

## CC1=C(/C=C/C(C)=C/C=C/C(C)=C/C(=O)O)C(C)(C)CCC1 [Retinoic acid]
animals
  irritation / allergy, primary skin irritation (in words): not inducing any inflammatory, irritation or intolerance reaction
hBD2 [6]; conc. 0.005%
  hBD2 expression, percentage of the control: 26%
hBD3 [7]; conc. 0.005%
  hBD3 expression, percentage of the control: 161%
Human volunteers
  irritation / allergy, irritant or sensitizing potential (in words): not inducing any inflammatory, irritation or intolerance reaction

## TNFα
MIP3α; conc. 100 ng/mL
  MIP3α level: 23.6 pg/mL/RNA concentration (in ng/μL)
hBD2 [1]; 100 ng/mL (positive control)
  HBD2 expression, percentage of the positive control (TNFα): 100%
IL8 [8]
  IL8 level: 186 pg/mL/RNA concentration (in ng/μL) and 97 pg/mL/RNA concentration (in ng/μL)
IL8 [2]; conc. 100 ng/mL
  IL8 level: 175 pg/mL/RNA concentration (in ng/μL)
hBD3 [3]; 100 ng/mL (positive control)
  HBD3 expression, percentage of the positive control (IFNγ): 100%
IL1α; conc. 100 ng/mL
  IL1α level: 21.8 pg/mL/RNA concentration (in ng/μL)
hBD2 [6]; conc. 100 ng/mL
  hBD2 expression, percentage of the control: 1755%
hBD3 [7]; conc. 100 ng/mL
  hBD3 expression, percentage of the control: 774%

B1: IFNγ: gamma interferon, positive control for hBD3 stimulation, 100 ng/mL (protein, UniProt P01579 24-161, looked up)
Interferon gamma: QDPYVKEAENLKKYFNAGHSDVADNGTLFLGILKNWKEESDRKIMQSQIVSFYFKLFKNFKDDQSIQKSVETIKEDMNVKFFNSNKKKRDDFEKLTNYSVTDLNVQRKAIHELIQVMAELSPAAKTGKRKRSQMLFRG
MIP3α; conc. 100 ng/mL
  MIP3α level: 11.6 pg/mL/RNA concentration (in ng/μL)
IL8 [2]; conc. 100 ng/mL
  IL8 level: 100.5 pg/mL/RNA concentration (in ng/μL)
IL1α; conc. 100 ng/mL
  IL1α level: 40.1 pg/mL/RNA concentration (in ng/μL)
hBD2 [6]; conc. 100 ng/mL
  hBD2 expression, percentage of the control: 472%
hBD3 [7]; conc. 100 ng/mL
  hBD3 expression, percentage of the control: 4631%
